Measured values published in US20170340584A1 (priority 2014, published 2017).

Assays:
[1] = Body weight and body weight gain of high-fat diet mice; format: in vivo, mice (C57BL/6); conditions: sample in drinking water, metformin 250 mg/kg
Experimental: (§1) Using 8-week-old male mice (C57BL/6) (purchased from CoreTech), anti-diabetic candidate materials were evaluated using a GTT (Glucose Tolerance Test) that is a typical method for diagnosis of diabetes.
(§2) Mice were housed at a temperature of 22±2° C. and a relative humidity of 55-60% with 12-hr light/12-hr dark cycles. Five animals were allotted to each group, and mice from the same mother were grouped into one group, because male mice tend to fight together.
(§3) As feed, high-fat diet (60% of calories from fat; Research Diet Inc., New Brunswick, N.J.) and water were fed ad libitum for 10 weeks. Herein, the water fed contained the samples prepared in Examples 1-2 (3), 2-1, 2-4-1, 2-4-2 and 2-5. As a positive control, metformin (M-072, Sigma) (250 mg/kg) was used, and as a control, the samples prepared in Comparative Examples 1-1, 2-3-2, 2-5-1, 2-5-2 and 2-6 were used.
(§4) For reference, each of the samples prepared in Examples 2-4-1, 2-4-2 and 2-5 was set to the amount to be taken by an adult (60 kg) for 3 days, and the amount was converted into a mouse dose (12-fold/kg, see the US NIH guidance), thereby preparing animal feed. Namely, the amount to be taken by an adult (60 kg) for 3 days is 180-day dose/kg, which corresponds to 15-day dose/kg for mice. Thus, the amount corresponds to 750-day dose/mouse (20 g), because the average weight of mice is about 20 g. Thus, one mouse was allowed to take 1/750 of the prepared sample each day.
(§5) In addition, each of the samples prepared in Examples 1-2 (3) and 2-1 was set to the amount to be taken by an adult (60 kg) for 2 days, and the amount was converted into a mouse dose (12-fold/kg, see the US NIH guidance), thereby preparing animal feed. Namely, the amount to be taken by an adult (60 kg) for 2 days is 120-day dose/kg, which corresponds to 10-day dose/kg for mice. Thus, the amount corresponds to 500-day dose/mouse (20 g), because the average weight of mice is about 20 g. Thus, one mouse was allowed to take 1/500 of the prepared sample each day.
The diet intake and the body weight gain were measured weekly for 8 weeks. The body weight and the diet intake were measured immediately before first drug administration, and then measured at one-week intervals.
(§6) Meanwhile, experimental analysis results were expressed as mean±S.E.M., and the significance between test groups was statistically processed using Student T-TEST, and then the significance was verified at *P<0.05.

[2] = Glucose tolerance test (GTT) in high-fat diet mice; format: in vivo, mice (C57BL/6); conditions: for Glucose level (mg/dl), Mean: GTT, high-fat diet mice
Experimental: as §1, §2, §3, §4, §5
At 8 weeks of high-fat diet feeding, a glucose tolerance test (GTT) was performed. For 8 hours for the test, mice were fasted. Then, blood was sampled from the tail vein, and initial blood glucose levels were measured with a blood glucose meter (AUTO-CHEK, Diatech Korea). Then, glucose was administered intraperitoneally to the mice at a concentration of 1 g/kg, and after 30 min, 60 min, 90 min and 120 min, blood was sampled from the mice, followed by measurement of blood glucose levels (each group consisting of five animals).
as §6

[3] = Blood biochemistry (triglyceride, AST, ALT) in high-fat diet mice; format: in vivo, mice (C57BL/6)
Experimental: as §1, §3
In blood biochemistry, insulin (AKRIN-011T, Shibayagi, Japan), glucose (AM202, Asan Pharmaceutical Co., Ltd., Korea), triglyceride (AM157, Asan Pharmaceutical Co., Ltd.), total cholesterol (AM202, Asan Pharmaceutical Co., Ltd.), AST and ALT (Asan Pharmaceutical Co., Ltd.) were analyzed using enzymatic assay kits.
(§7) At 10 weeks of high-fat diet feeding, the mice were sacrificed by cervical dislocation to obtain serum. For histological examination, the liver, white adipose tissue (WAT), brown adipose tissue (BAT) and kidney were fixed with formalin (50-00-0, Junsei, Japan), and the remaining organs were stored at −70° C. The blood sampled from the heart was coagulated to obtain serum which was then stored at −70° C.
as §6

[4] = tested on: liver, white adipose tissue (WAT), brown adipose tissue (BAT) and kidney; test: Histological examination of high-fat diet mice; format: in vivo, mice (C57BL/6); conditions: 10 weeks of high-fat diet feeding
Experimental: as §7
For histological examination, the major organs and adipose were fixed in 4% neutral buffered formalin and embedded in paraffin blocks, and the paraffin blocks were sectioned at 5 μm and stained with hymatoxylin (MHS-16, Sigma-Aldrich, USA) and eosin (HT110116, Sigma-Aldrich). The prepared tissue samples were mounted in glycerin gel mounting media (SP15-100, Fisher Scientific, USA), covered with cover glass, and observed with a microscope (IX71, OLYMPUS, USA). The tissue was imaged with the camera equipped in the microscope.

[5] = Scanning electron microscope (SEM) analysis, particle size; format: physicochemical
Description: For reference, an analysis instrument and analysis conditions are as follows. (1) Analysis instrument: HITACHI (S-2700), Japan (2) Electron gun: Tungsten filament type (3) Resolution: 4.0 nm (4) Accelerating voltage: 15.0 kV.

[6] = Thermogravimetric analysis (TGA); format: physicochemical; conditions: first-order differentiation of TGA; N2, 20° C./min
Experimental: For reference, an analysis instrument and analysis conditions are as follows. (1) Analysis instrument: TGA 7 (Perkin-Elmer) (2) Atmosphere: N2 gas (3) Heating rate: 20° C./min (4) Range: 50 to 600° C.

## NCCS(=O)(=O)O [DT15, modified taurine]
[1]; 1 week
  Body weight gain, Mean: 2.65 g
  Body weight, Mean: 20.30 g
[1]; 2 weeks
  Body weight gain, Mean: 4.40 g
  Body weight, Mean: 22.05 g
[1]; 3 weeks
  Body weight gain, Mean: 6.28 g
  Body weight, Mean: 23.93 g
[1]; 4 weeks
  Body weight gain, Mean: 7.53 g
  Body weight, Mean: 25.18 g
[1]; 5 weeks
  Body weight gain, Mean: 8.38 g
  Body weight, Mean: 26.03 g
[1]; 6 weeks
  Body weight gain, Mean: 10.25 g
  Body weight, Mean: 27.90 g
[1]; 7 weeks
  Body weight gain, Mean: 11.10 g
  Body weight, Mean: 28.75 g
[1]; 8 weeks
  Body weight, Mean: 29.23 g
[1]; before administration
  Body weight, Mean: 17.65 g
[2]; 0 min
  Glucose level (mg/dl), Mean: 121.25 mg/dL
[2]; 30 min
  Glucose level (mg/dl), Mean: 335.25 mg/dL
[2]; 60 min
  Glucose level (mg/dl), Mean: 295.25 mg/dL
[2]; 90 min
  Glucose level (mg/dl), Mean: 193.75 mg/dL
[2]; 120 min
  Glucose level (mg/dl), Mean: 126.25 mg/dL
[2]; at 8 weeks of high-fat diet feeding, 8 hours fasted
  Fasting glucose level: lower than that of the mice administered with high-fat diet (HFD), and were similar to the blood glucose levels of normal mice
[2]; at 8 weeks of high-fat diet feeding, glucose 1 g/kg intraperitoneally, 30-120 min
  Glucose control ability in GTT: significantly higher than that of the group administered with HFD alone
[3]
  ALT level: lower than those of DT19
  AST level: lower than those of DT19
  Triglyceride level: significantly lower than that of DT19 (taurine)
[3]; blood
  ALT level (IU/L), Mean: 14.02 IU/L
  AST level (IU/L), Mean: 98.96 IU/L
  Triglyceride level (mg/dl), Mean: 53.62 mg/dL
[4]
  Accumulation of adipose in brown adipose tissue: decreased
  Development of fatty liver: decreased
[4]; kidney tissue
  Nephrotoxicity: did not appear
[5]
  Average particle size: 190.84 μm
  Median particle size: 122.47 μm
[6]
  Final decomposition temperature: 396 °C
  First decomposition temperature: 359 °C
